Experiments:
B16-OVA tumors = experiment: SIINFEKL-specific CD8+ T-cell induction after topical PEP005 treatment of B16-OVA (IFNγ ELISPOT); type: in vivo, C57/BL6 mice
Procedure: B16 and B16 cells stably expressing ovalbumin (B16-OVA)were grown s.c. in C57BL/6 mice as described previously (Ogbourne et al, Cancer Res 64:2833-2839, 2004; Anraku et al, J Virol 76:3791-3799, 2002). Lung metastases were established as described (Zeh et al, J Immunol 162:989-994, 1999). Lewis lung-OVA (Nelson et al, J Immunol 166:5557-5566, 2001) were grown s.c. in C57BL/6 as described (Lenarczyk et al, Vaccine 22:963-974, 2004).
Tumors were treated by topical or intratumoral (i.t.) injection (using a 26 gauge needle) of (i) PEP0005 dissolved in acetone and then RPMI 1640 (final concentration of acetone 4%), or (ii) PEP005 formulated in PEG400.
Mouse splenocytes were analyzed by ex vivo IFNγ ELISPOT essentially as described previously (Le et al, Vaccine 19:4669-4675, 2001), but using MultiScreen-IP plates (Millipore) and 25 IU/ml of recombinant human IL-2 (Cetus).
Following three topical applications of PEP005 to established s.c. B16-OVA tumors on C57/BL6 mice, the number of SIINFEKL [SEQ ID NO:2]-specific CD8^+ T-cell induced were measured using IFNγ ELISPOT. As controls, the SIINFEKL [SEQ ID NO:2] specific CM^+ T-cell induced following (i) PEP005 treatment without tumor, (ii) mock treatment of B16 tumors and (iii) naïve mice (no PEP005 or tumor), were also tested.

B16-OVA lung metastases = experiment: B16-OVA melanoma lung metastasis model; type: in vivo, C57BL/6 mice
Procedure: FIGS. 4A to D are graphical representations showing protection against secondary tumors following cure of primary tumors with PEP005. (A) C57BL/6 mice received 5×10^5 Lewis lung-OVA s.c. on the back on day less 7 (d−7). When these primary tumors had reached an average 13.6 mm^2±1.8 SE (range 10-25 mm^2) on d0 they were treated once with 16 μg of PEP005 delivered i.t. In eight mice these primary tumors were cured, and these mice received 5×10^5 Lewis lung-OVA s.c. on d4 on the opposite flank from the primary tumors. The emergence of these secondary tumors was monitored over time (PEP005 cured). In a parallel group of animals (n=5) PEP005 treatment regressed the primary tumors, but after 11-13 days the primary tumors re-emerged. These animals also received secondary tumors as above and their emergence was again monitored over time (PEP005 regressed). Two control groups were included. One group (n=6) received no primary tumors, but was treated s.c. with PEP005 and received secondary tumors on the opposite flank (white triangles, PEP005 s.c.). The second control group (n=8) also received no primary tumors, was not treated with PEP005, and received secondary tumors as above (Controls). […] Secondary B16-OVA (10^5) were injected i.v. on d6 and animals were sacrificed on d27 and lung metastases counted. […]

[1] = tested on: CT26 colon carcinoma cells; experiment: PEP005-mediated cure of primaries plus peptide vaccine, CT26 colon carcinoma model; type: in vivo, Balb/c mice; settings: Log rank p=0.011 (PEP005) and =0.013 (Vaccine)
Procedure: FIG. 14 is a graphical representation combining PEP005-mediated cure of primaries and cancer vaccination in the CT26 colon carcinoma model. (A) on d−3 […] mice were inoculated with 10^5 CT26 cells on the left flank (primary tumor) and 5×10^3 CT26 cells on the right flank (secondary tumor). On dO the primary CT26 tumors, which has reached 16.8+SD 3.2 mm^2 were cured with i.t. injections of 25 μg of PEP005 formulated in PEG400. On d3 and d10 mice received peptide vaccine containing the SPSYVYHQF [SEQ ID NO:5] epitope (n=9, PEP005+Vaccine). […] A third group was inoculated with secondary tumors only and received the vaccine (n=11, Vaccine), and the control group was given only secondary tumors and received no treatment (n=12, Controls). Animals were culled when the secondary tumors reached 100 mm^2.
CT26 colon carcinoma cells [CRL-2638] (Ali et al, 2002 supra) were grown s.c. in 6-10 week old female Balb/c mice.
The cancer vaccine comprised the gp70 A-1 peptide epitope SPSYVYHQF [SEQ ID NO:5] […]
To determine whether the effects seen in the B16 models could be repeated in a different tumor model and using a different cancer vaccine, four groups of Balb/c mice were established using the CT26 colon carcinoma model (Ali et al, J Immunol 168:3512-3519, 2002). […] The growth of secondary tumors was monitored as above.

`C/C=C(/C)C(=O)O[C@H]1C(C)=C[C@]23C(=O)[C@@H](C=C(CO)[C@@H](O)[C@]12O)[C@H]1[C@@H](C[C@H]3C)C1(C)C` [PEP005, ingenol-3-angelate] was tested, and the “tumor bearing animals cured” value (B16-OVA tumors; B16-OVA tumors treated topically with PEP005) was 4/7, the “SIINFEKL-specific CD8+ T-cell responses (IFNγ ELISPOT)” value (B16-OVA tumors; mice receiving PEP005 without tumor, limit of detection five spots/10^6 splenocytes) was “no significant responses” and the “SIINFEKL-specific CD8+ T-cell responses (IFNγ ELISPOT)” value (B16-OVA tumors; mice with B16-OVA tumors treated with three topical applications of PEP005 (cured mice, n=4), p=0.058 vs combined negative controls) was “some weak variable responses”. The “growth of lung metastases” value (B16-OVA lung metastases; partial regression of the primary tumors by PEP005) was “failed to inhibit significantly”, the “number of lung metastases” value (B16-OVA lung metastases; s.c. primary B16-OVA cured by PEP005, B16-OVA i.v. six days after treatment, Wilcoxon p=0.046) was “reduce significantly” and the “growth of secondaries vs no treatment controls” value [1] was “significantly reduced the growth of secondaries”.
